Results as given in patent publication US20230139171A1 (SITA Information Networking Computing UK Limited, priority 2019, published 2023).

Columns and labels:
Type in all cases: cell-based
[1] = target: T1, human TLR8 (Homo sapiens, UniProt Q9NR97); assay: TLR8 inhibition reporter assay (HEK-Blue cells, SEAP reporter, R848 stimulation); details: HEK-Blue cells overexpressing human TLR8, SEAP reporter, R848 15.9 μM; read-out: TLR8 IC50
T1 construct: host or cells: HEK-Blue cells
T1 sequence (Q9NR97 27-1041): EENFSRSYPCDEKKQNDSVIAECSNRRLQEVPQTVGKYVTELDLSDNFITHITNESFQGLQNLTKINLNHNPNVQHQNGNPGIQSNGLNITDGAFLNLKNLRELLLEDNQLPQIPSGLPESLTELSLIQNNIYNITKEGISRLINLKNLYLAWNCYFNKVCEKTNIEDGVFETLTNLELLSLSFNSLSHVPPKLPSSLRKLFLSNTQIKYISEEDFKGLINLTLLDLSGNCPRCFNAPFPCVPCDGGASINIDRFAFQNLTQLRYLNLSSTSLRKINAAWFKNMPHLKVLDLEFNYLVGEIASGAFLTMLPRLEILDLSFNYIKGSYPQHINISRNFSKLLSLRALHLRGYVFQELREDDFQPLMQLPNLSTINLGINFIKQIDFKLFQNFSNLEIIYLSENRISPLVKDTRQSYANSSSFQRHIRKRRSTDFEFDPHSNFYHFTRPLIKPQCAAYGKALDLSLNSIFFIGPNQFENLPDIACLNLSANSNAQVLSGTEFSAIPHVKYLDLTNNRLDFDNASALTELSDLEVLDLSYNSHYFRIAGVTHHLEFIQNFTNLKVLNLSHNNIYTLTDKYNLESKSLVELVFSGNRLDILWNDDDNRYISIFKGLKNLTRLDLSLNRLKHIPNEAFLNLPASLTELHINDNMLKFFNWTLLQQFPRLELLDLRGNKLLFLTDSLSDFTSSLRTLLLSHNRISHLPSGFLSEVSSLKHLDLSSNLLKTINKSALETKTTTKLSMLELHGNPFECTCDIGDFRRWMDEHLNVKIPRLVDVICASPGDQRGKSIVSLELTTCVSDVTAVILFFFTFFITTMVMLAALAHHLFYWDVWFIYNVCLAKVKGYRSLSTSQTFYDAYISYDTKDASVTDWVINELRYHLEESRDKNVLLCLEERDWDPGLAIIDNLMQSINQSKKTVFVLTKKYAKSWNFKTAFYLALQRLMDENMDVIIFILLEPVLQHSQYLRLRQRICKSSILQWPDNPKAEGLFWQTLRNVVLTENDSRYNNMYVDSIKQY
Method in brief: (§1)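 Dose–response from 0.05 nM to 50 μM was run in HEK-Blue human TLR7, TLR8 and TLR9 reporter cells. After 30 min at room temperature with compound, ligand was added (TLR7 gardiquimod 7.5 μM; TLR8 R848 15.9 μM; TLR9 ODN2006 5 nM) and SEAP measured next day, at 22 h.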

[2] = target: T2, human TLR9 (Homo sapiens, UniProt Q9NR96); assay: TLR9 inhibition reporter assay (HEK-Blue cells, SEAP reporter, ODN2006 stimulation); details: HEK-Blue cells overexpressing human TLR9, SEAP reporter, ODN2006 5 nM
T2 construct: host or cells: HEK-Blue cells
T2 sequence (Q9NR96 26-1032): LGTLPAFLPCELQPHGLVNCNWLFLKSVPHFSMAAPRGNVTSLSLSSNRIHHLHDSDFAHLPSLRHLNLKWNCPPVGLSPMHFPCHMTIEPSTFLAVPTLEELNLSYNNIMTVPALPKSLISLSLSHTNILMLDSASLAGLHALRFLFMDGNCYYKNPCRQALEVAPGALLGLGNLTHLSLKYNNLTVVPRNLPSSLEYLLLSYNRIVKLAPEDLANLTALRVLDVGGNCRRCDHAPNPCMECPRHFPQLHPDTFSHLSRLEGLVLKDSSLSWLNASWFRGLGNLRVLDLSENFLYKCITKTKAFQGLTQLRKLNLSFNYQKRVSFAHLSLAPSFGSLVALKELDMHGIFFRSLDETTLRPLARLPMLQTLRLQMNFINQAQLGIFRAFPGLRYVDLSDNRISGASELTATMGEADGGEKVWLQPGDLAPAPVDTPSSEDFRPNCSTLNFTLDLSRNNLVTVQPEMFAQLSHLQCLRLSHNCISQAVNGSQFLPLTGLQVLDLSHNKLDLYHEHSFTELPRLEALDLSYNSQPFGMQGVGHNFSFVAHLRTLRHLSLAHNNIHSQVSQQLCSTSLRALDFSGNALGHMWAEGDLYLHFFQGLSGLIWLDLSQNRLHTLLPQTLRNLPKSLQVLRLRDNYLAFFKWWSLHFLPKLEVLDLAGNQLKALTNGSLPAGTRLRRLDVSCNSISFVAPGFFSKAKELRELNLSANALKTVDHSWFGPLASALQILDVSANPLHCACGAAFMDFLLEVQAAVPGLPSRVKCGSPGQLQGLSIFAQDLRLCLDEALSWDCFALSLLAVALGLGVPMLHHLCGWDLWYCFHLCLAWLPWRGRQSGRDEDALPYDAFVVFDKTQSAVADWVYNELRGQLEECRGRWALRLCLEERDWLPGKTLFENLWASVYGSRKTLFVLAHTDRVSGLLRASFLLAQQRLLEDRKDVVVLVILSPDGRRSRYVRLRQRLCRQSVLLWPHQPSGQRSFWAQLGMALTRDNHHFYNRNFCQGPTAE
Method in brief: as §1

[3] = target: T3, human TLR7 (Homo sapiens, UniProt Q9NYK1); assay: TLR7 inhibition reporter assay (HEK-Blue cells, SEAP reporter, gardiquimod stimulation); details: HEK-Blue cells overexpressing human TLR7, SEAP reporter, gardiquimod 7.5 μM; read-out: TLR7 IC50
T3 construct: host or cells: HEK-Blue cells
T3 sequence (Q9NYK1 27-1049): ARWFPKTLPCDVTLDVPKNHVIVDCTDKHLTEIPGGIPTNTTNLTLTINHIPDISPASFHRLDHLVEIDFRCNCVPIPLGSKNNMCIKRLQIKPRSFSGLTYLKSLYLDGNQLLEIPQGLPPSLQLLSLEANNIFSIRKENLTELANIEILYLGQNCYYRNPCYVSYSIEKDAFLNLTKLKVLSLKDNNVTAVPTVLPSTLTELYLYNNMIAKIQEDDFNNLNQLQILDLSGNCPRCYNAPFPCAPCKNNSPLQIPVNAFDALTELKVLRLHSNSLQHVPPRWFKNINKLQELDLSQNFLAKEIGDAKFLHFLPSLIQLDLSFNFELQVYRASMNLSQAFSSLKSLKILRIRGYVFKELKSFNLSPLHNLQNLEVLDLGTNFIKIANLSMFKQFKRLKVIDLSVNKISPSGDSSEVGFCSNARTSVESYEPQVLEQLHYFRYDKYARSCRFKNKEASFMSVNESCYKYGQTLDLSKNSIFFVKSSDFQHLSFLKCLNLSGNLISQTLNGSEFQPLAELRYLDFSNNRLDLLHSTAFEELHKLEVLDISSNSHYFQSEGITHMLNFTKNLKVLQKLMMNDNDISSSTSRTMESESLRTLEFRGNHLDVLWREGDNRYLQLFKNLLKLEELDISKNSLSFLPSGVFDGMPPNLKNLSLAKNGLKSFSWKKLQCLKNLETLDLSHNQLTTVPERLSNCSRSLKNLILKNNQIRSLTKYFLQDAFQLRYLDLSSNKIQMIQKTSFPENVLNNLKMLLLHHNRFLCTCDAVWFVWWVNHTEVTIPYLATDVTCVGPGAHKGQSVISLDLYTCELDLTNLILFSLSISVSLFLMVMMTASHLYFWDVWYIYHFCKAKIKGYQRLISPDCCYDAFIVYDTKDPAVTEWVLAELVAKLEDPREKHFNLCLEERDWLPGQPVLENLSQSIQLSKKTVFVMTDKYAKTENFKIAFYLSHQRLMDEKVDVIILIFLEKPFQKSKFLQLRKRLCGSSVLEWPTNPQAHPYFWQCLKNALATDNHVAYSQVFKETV
Method in brief: as §1

Cc1c(-c2[nH]c3sc(C4CCC(NC5COC5)CC4)nc3c2C(C)C)cn(C)c(=O)c1C (single isomer, unassigned) [Example 241, 5-(6-isopropyl-2-(4-(oxetan-3-ylamino)cyclohexyl)-4H-pyrrolo[3,2-d]thiazol-5-yl)-1,3,4-trimethylpyridin-2(1H)-one]
IC50 [1]: 3.19 nM | IC50 [2]: > 50000 nM | IC50 [3]: 8.06 nM

Cc1c(-c2[nH]c3sc(C4CCC(NC5COC5)CC4)nc3c2C(C)C)cn(C)c(=O)c1C (single isomer, unassigned) [Example 242, 5-(6-isopropyl-2-(4-(oxetan-3-ylamino)cyclohexyl)-4H-pyrrolo[3,2-d]thiazol-5-yl)-1,3,4-trimethylpyridin-2(1H)-one]
IC50 [1]: 16.1 nM | IC50 [2]: > 50000 nM | IC50 [3]: 47.1 nM

COC(C)(C)CNC1CCC(c2nc3c(C(C)C)c(-c4cn(C)c(=O)c(C)c4C)[nH]c3s2)CC1 (single isomer, unassigned) [Example 243, 5-(6-isopropyl-2-(4-((2-methoxy-2-methylpropyl)amino)cyclohexyl)-4H-pyrrolo[3,2-d]thiazol-5-yl)-1,3,4-trimethylpyridin-2(1H)-one]
IC50 [1]: 2.1 nM | IC50 [2]: 29800 nM | IC50 [3]: 16.4 nM

COC(C)(C)CNC1CCC(c2nc3c(C(C)C)c(-c4cn(C)c(=O)c(C)c4C)[nH]c3s2)CC1 (single isomer, unassigned) [Example 244, 5-(6-isopropyl-2-(4-((2-methoxy-2-methylpropyl)amino)cyclohexyl)-4H-pyrrolo[3,2-d]thiazol-5-yl)-1,3,4-trimethylpyridin-2(1H)-one]
IC50 [1]: 17.5 nM | IC50 [2]: 25300 nM | IC50 [3]: 44 nM

Cc1c(-c2[nH]c3sc(C4CCC(N5CC6(COC6)C5)CC4)nc3c2C(C)C)cn(C)c(=O)c1C (single isomer, unassigned) [Example 245, 5-(2-(4-(2-oxa-6-azaspiro[3.3]heptan-6-yl)cyclohexyl)-6-isopropyl-4H-pyrrolo[3,2-d]thiazol-5-yl)-1,3,4-trimethylpyridin-2(1H)-one]
IC50 [1]: 0.65 nM | IC50 [2]: 22900 nM | IC50 [3]: 2.6 nM

Cc1c(-c2[nH]c3sc(C4CCC(N5CC6(COC6)C5)CC4)nc3c2C(C)C)cn(C)c(=O)c1C (single isomer, unassigned) [Example 246, 5-(2-(4-(2-oxa-6-azaspiro[3.3]heptan-6-yl)cyclohexyl)-6-isopropyl-4H-pyrrolo[3,2-d]thiazol-5-yl)-1,3,4-trimethylpyridin-2(1H)-one]
IC50 [1]: 154 nM | IC50 [2]: > 50000 nM | IC50 [3]: 60.8 nM

CCN(C)C1CCC(c2nc3c(C(C)C)c(-c4cn(C)c(=O)c(C)c4C)[nH]c3s2)CC1 (single isomer, unassigned) [Example 247, 5-(2-(4-(ethyl(methyl)amino)cyclohexyl)-6-isopropyl-4H-pyrrolo[3,2-d]thiazol-5-yl)-1,3,4-trimethylpyridin-2(1H)-one]
IC50 [1]: 4.42 nM | IC50 [2]: 42500 nM | IC50 [3]: 5.87 nM

CCN(C)C1CCC(c2nc3c(C(C)C)c(-c4cn(C)c(=O)c(C)c4C)[nH]c3s2)CC1 (single isomer, unassigned) [Example 248, 5-(2-(4-(ethyl(methyl)amino)cyclohexyl)-6-isopropyl-4H-pyrrolo[3,2-d]thiazol-5-yl)-1,3,4-trimethylpyridin-2(1H)-one]
IC50 [1]: 12 nM | IC50 [2]: 14000 nM | IC50 [3]: 8.33 nM

Cc1c(-c2[nH]c3sc(C4CCC(NC5CCOCC5)CC4)nc3c2C(C)C)cn(C)c(=O)c1C (single isomer, unassigned) [Example 249, 5-(6-isopropyl-2-(4-((tetrahydro-2H-pyran-4-yl)amino)cyclohexyl)-4H-pyrrolo[3,2-d]thiazol-5-yl)-1,3,4-trimethylpyridin-2(1H)-one]
IC50 [1]: 1.19 nM | IC50 [2]: 19800 nM | IC50 [3]: 6.34 nM

Cc1c(-c2[nH]c3sc(C4CCC(NC5CCOCC5)CC4)nc3c2C(C)C)cn(C)c(=O)c1C (single isomer, unassigned) [Example 250, 5-(6-isopropyl-2-(4-((tetrahydro-2H-pyran-4-yl)amino)cyclohexyl)-4H-pyrrolo[3,2-d]thiazol-5-yl)-1,3,4-trimethylpyridin-2(1H)-one]
IC50 [1]: 43.6 nM | IC50 [2]: 43300 nM | IC50 [3]: 46.8 nM

Cc1c(-c2[nH]c3sc(C4CCC(NCC(C)(C)O)CC4)nc3c2C(C)C)cn(C)c(=O)c1C (single isomer, unassigned) [Example 251, 5-(2-(4-((2-hydroxy-2-methylpropyl)amino)cyclohexyl)-6-isopropyl-4H-pyrrolo[3,2-d]thiazol-5-yl)-1,3,4-trimethylpyridin-2(1H)-one]
IC50 [1]: 2.68 nM | IC50 [2]: 45300 nM | IC50 [3]: 10.6 nM

Cc1c(-c2[nH]c3sc(C4CCC(NCC(C)(C)O)CC4)nc3c2C(C)C)cn(C)c(=O)c1C (single isomer, unassigned) [Example 252, 5-(2-(4-((2-hydroxy-2-methylpropyl)amino)cyclohexyl)-6-isopropyl-4H-pyrrolo[3,2-d]thiazol-5-yl)-1,3,4-trimethylpyridin-2(1H)-one]
IC50 [1]: 35.8 nM | IC50 [2]: > 50000 nM | IC50 [3]: 67.9 nM
